Values joined by “and” are separate entries in the source; they are usually repeats but may differ in a detail not shown here. Identical values can stand only once.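 These data come from cells grown in 96-well plates and exposed to compound for 48 hours at five concentrations. GI50: concentration for 50% inhibition of growth.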 Active and inactive are the calls of the source. Cut-off read from the data, not from the text of the source: active = GI50 up to about 1.1 µM and inactive = higher.
Assays:
Test in all cases: DTP human tumour cell line panel, 48 h
BT-549 = tested on: BT-549
RPMI-8226 = tested on: RPMI-8226
UACC-62 = tested on: UACC-62
PC-3 = tested on: PC-3
MDA-MB-231 = tested on: MDA-MB-231
UACC-257 = tested on: UACC-257
KM12 = tested on: KM12
MDA-MB-435 = tested on: MDA-MB-435
NCI-H226 = tested on: NCI-H226
TK-10 = tested on: TK-10
SNB-19 = tested on: SNB-19
RXF 393 = tested on: RXF 393
ACHN = tested on: ACHN
NCI/ADR-RES = tested on: NCI/ADR-RES
OVCAR-8 = tested on: OVCAR-8
K562 = tested on: K562
HT-29 = tested on: HT-29
U-251 = tested on: U-251
HCC 2998 = tested on: HCC 2998
SK-MEL-28 = tested on: SK-MEL-28

Nc1ncnc2c1nc(Cl)n2C1OC(CO)C(O)C1O (configuration not stated)
GI50 (BT-549): 3.15 µM (inactive)
GI50 (RPMI-8226): 1.44 µM (inactive)
GI50 (UACC-62): 0.966 µM (active)
GI50 (PC-3): 1.44 µM (inactive)
GI50 (MDA-MB-231): 6.95 µM (inactive)
GI50 (UACC-257): 4.48 µM (inactive)
GI50 (KM12): 2.04 µM (inactive)
GI50 (MDA-MB-435): 2.21 µM (inactive)
GI50 (NCI-H226): 1.63 µM (inactive)
GI50 (TK-10): 0.502 µM (active)
GI50 (SNB-19): 22.1 µM (inactive)
GI50 (RXF 393): 0.213 µM (active)
GI50 (ACHN): 0.489 µM (active)
GI50 (NCI/ADR-RES): 1.41 µM (inactive)
GI50 (OVCAR-8): 1.11 µM (active)
GI50 (K562): 0.347 µM (active)
GI50 (HT-29): 0.649 µM (active)
GI50 (U-251): 7.59 µM (inactive)
GI50 (HCC 2998): 0.556 µM (active)
GI50 (SK-MEL-28): > 45.5 µM (inactive)

O=C1/C(=C\c2ccc([N+](=O)[O-])cc2)CS(=O)(=O)C/C1=C/c1ccc([N+](=O)[O-])cc1
GI50 (BT-549): 0.316 µM (active)
GI50 (RPMI-8226): 0.0942 µM (active)
GI50 (UACC-62): 0.198 µM (active)
GI50 (PC-3): 0.392 µM (active)
GI50 (MDA-MB-231): 0.193 µM (active)
GI50 (UACC-257): 1.81 µM (inactive)
GI50 (KM12): 0.327 µM (active)
GI50 (MDA-MB-435): 0.358 µM (active)
GI50 (NCI-H226): 2.83 µM (inactive)
GI50 (TK-10): 0.787 µM (active)
GI50 (SNB-19): 3.24 µM (inactive)
GI50 (RXF 393): 0.482 µM (active)
GI50 (ACHN): 0.705 µM (active)
GI50 (NCI/ADR-RES): 0.161 µM (active)
GI50 (OVCAR-8): 0.107 µM (active)
GI50 (HT-29): 0.357 µM (active)
GI50 (U-251): 0.298 µM (active)
GI50 (HCC 2998): 0.247 µM (active)
GI50 (SK-MEL-28): 1.13 µM (inactive)

CC(C)Cn1cnc2c(NCC(C)O)nc3ccccc3c21 (configuration not stated)
GI50 (BT-549): > 100 µM (inactive)
GI50 (RPMI-8226): > 100 µM (inactive)
GI50 (UACC-62): 52.2 µM (inactive)
GI50 (PC-3): 87.7 µM (inactive)
GI50 (MDA-MB-231): > 100 µM (inactive)
GI50 (UACC-257): > 100 µM (inactive)
GI50 (KM12): > 100 µM (inactive)
GI50 (MDA-MB-435): > 100 µM (inactive)
GI50 (NCI-H226): > 100 µM (inactive)
GI50 (TK-10): 91.4 µM (inactive)
GI50 (SNB-19): > 100 µM (inactive)
GI50 (RXF 393): > 100 µM (inactive)
GI50 (ACHN): 41.1 µM (inactive)
GI50 (NCI/ADR-RES): > 100 µM (inactive)
GI50 (OVCAR-8): > 100 µM (inactive)
GI50 (K562): 61.4 µM (inactive)
GI50 (HT-29): 36.6 µM (inactive)
GI50 (U-251): > 100 µM (inactive)
GI50 (HCC 2998): > 100 µM (inactive)
GI50 (SK-MEL-28): > 100 µM (inactive)

CCOP(=O)(OCC)/C(C#N)=C/c1c[nH]c2ccccc12
GI50 (BT-549): 57.9 µM (inactive)
GI50 (RPMI-8226): 90.4 µM (inactive)
GI50 (UACC-62): > 100 µM (inactive)
GI50 (PC-3): > 100 µM (inactive)
GI50 (MDA-MB-231): > 100 µM (inactive)
GI50 (UACC-257): > 100 µM (inactive)
GI50 (KM12): > 100 µM (inactive)
GI50 (MDA-MB-435): > 100 µM (inactive)
GI50 (NCI-H226): > 100 µM (inactive)
GI50 (TK-10): > 100 µM (inactive)
GI50 (SNB-19): > 100 µM (inactive)
GI50 (RXF 393): > 100 µM (inactive)
GI50 (ACHN): > 100 µM (inactive)
GI50 (NCI/ADR-RES): 53 µM (inactive)
GI50 (OVCAR-8): > 100 µM (inactive)
GI50 (K562): > 100 µM (inactive)
GI50 (HT-29): > 100 µM (inactive)
GI50 (U-251): > 100 µM (inactive)
GI50 (HCC 2998): > 100 µM (inactive)
GI50 (SK-MEL-28): > 100 µM (inactive)

OC(c1cccnc1)C(F)(F)c1nc2ccccc2o1 (configuration not stated)
GI50 (BT-549): > 100 µM (inactive)
GI50 (RPMI-8226): > 100 µM (inactive)
GI50 (UACC-62): > 100 µM (inactive)
GI50 (PC-3): > 100 µM (inactive)
GI50 (MDA-MB-231): > 100 µM (inactive)
GI50 (UACC-257): > 100 µM (inactive)
GI50 (KM12): > 100 µM (inactive)
GI50 (MDA-MB-435): > 100 µM (inactive)
GI50 (NCI-H226): > 100 µM (inactive)
GI50 (TK-10): > 100 µM (inactive)
GI50 (SNB-19): > 100 µM (inactive)
GI50 (RXF 393): > 100 µM (inactive)
GI50 (ACHN): > 100 µM (inactive)
GI50 (NCI/ADR-RES): > 100 µM (inactive)
GI50 (OVCAR-8): > 100 µM (inactive)
GI50 (K562): 56.5 µM (inactive)
GI50 (HT-29): > 100 µM (inactive)
GI50 (U-251): > 100 µM (inactive)
GI50 (HCC 2998): > 100 µM (inactive)
GI50 (SK-MEL-28): > 100 µM (inactive)

CC(=O)OCC1OC(SC2=NC(=O)CS2)C(OC(C)=O)C(OC(C)=O)C1OC(C)=O (configuration not stated)
GI50 (BT-549): 93.5 µM (inactive) and 62.7 µM (inactive)
GI50 (RPMI-8226): 51.8 µM (inactive) and 27.4 µM (inactive)
GI50 (UACC-62): > 100 µM (inactive) and 76.6 µM (inactive)
GI50 (PC-3): 84.1 µM (inactive) and 95.5 µM (inactive)
GI50 (MDA-MB-231): > 100 µM (inactive)
GI50 (UACC-257): > 100 µM (inactive)
GI50 (KM12): > 100 µM (inactive)
GI50 (MDA-MB-435): > 100 µM (inactive)
GI50 (NCI-H226): > 100 µM (inactive)
GI50 (TK-10): 53.7 µM (inactive)
GI50 (SNB-19): > 100 µM (inactive)
GI50 (RXF 393): > 100 µM (inactive)
GI50 (ACHN): > 100 µM (inactive)
GI50 (NCI/ADR-RES): > 100 µM (inactive)
GI50 (OVCAR-8): > 100 µM (inactive)
GI50 (K562): 43.5 µM (inactive) and 40 µM (inactive)
GI50 (HT-29): > 100 µM (inactive)
GI50 (HCC 2998): > 100 µM (inactive)
GI50 (SK-MEL-28): > 100 µM (inactive)

O=c1[nH][nH]c(=O)n1Cc1cccc(Cn2c(=O)[nH][nH]c2=O)c1
GI50 (BT-549): > 100 µM (inactive)
GI50 (RPMI-8226): > 100 µM (inactive)
GI50 (UACC-62): > 100 µM (inactive)
GI50 (PC-3): > 100 µM (inactive)
GI50 (MDA-MB-231): > 100 µM (inactive)
GI50 (UACC-257): > 100 µM (inactive)
GI50 (KM12): > 100 µM (inactive)
GI50 (MDA-MB-435): > 100 µM (inactive)
GI50 (NCI-H226): > 100 µM (inactive)
GI50 (TK-10): > 100 µM (inactive)
GI50 (SNB-19): > 100 µM (inactive)
GI50 (RXF 393): > 100 µM (inactive)
GI50 (NCI/ADR-RES): > 100 µM (inactive)
GI50 (OVCAR-8): > 100 µM (inactive)
GI50 (K562): > 100 µM (inactive)
GI50 (HT-29): > 100 µM (inactive)
GI50 (U-251): > 100 µM (inactive)
GI50 (HCC 2998): > 100 µM (inactive)
GI50 (SK-MEL-28): > 100 µM (inactive)

Source: ChEMBL document CHEMBL1201862, “PubChem BioAssay data set” (2004)
